Assay [1] deals with h-TELO-(D) (DNA, G4) GGGTTAGGGTTAGGGTTAGGG
As to the kind of experiment: 1H NMR titration (imino region). The settings on record: 25 mM Tris-HCl, pH 7.4, 298 K, 100 µM DNA.

Assay [2] deals with ds DNA (DNA, hairpin, HEG (hexaethylene glycol) linker between 10 and 11) TATAGCTATATATAGCTATA
Kind of assay: FRET melting. The settings on record: 1 µM BTC, highest tested.

The subject of assay [3] is c-MYC-(D) (DNA, G4) TGAGGGTGGGTAGGGTGGGTAA
As to the kind of experiment: 1H NMR titration (imino region). The settings on record: 25 mM Tris-HCl, pH 7.4, 298 K, 100 µM DNA, binds minor conformation.

Assay [4] concerns h-TELO-(A) (DNA, G4) GGGTTAGGGTTAGGGTTAGGG
As to the kind of experiment: FRET melting. The settings on record: 0.4 µM BTC, SD ±5%.

Assay [5] deals with c-MYC-(A) (DNA, G4) TGAGGGTGGGTAGGGTGGGTAA
As to the kind of experiment: FRET melting. The settings on record: 0.2 µM BTC, SD ±5%.

Setting [6] is: none (K+-free, MQ water), pH ~7.
[7] abbreviates: K+ (50 mM potassium cacodylate), pH 7.4, pre-annealed.

The term ΔTm denotes the change in melting temperature against a reference sample. For the molecule `CN(C)CCCNC(=O)c1ccc(-n2cc(-c3ccc4[nH]c5ccc(-c6cn(-c7ccc(C(=O)NCCCN(C)C)cc7)nn6)cc5c4c3)nn2)cc1`, the binding entry in assay [1] (K+ (100 mM KCl), weak shift perturbations) is given as “yes”; in assay [1] (none (K+-free), partial folding promoted) it was “yes”; in assay [3] (K+ (100 mM KCl)), “yes”; in assay [3] (none (K+-free)), “yes”. Further, the shift in melting temperature (ΔTm) in assay [2] (K+ (50 mM potassium cacodylate), pH 7.4) is 3 °C; in assay [2] (setting [6]), 2.9 °C; in assay [4] (setting [7]), 38.7 °C; in assay [4] (setting [6]), 38.5 °C; in assay [5] (setting [7]), 24.0 °C; in assay [5] (setting [6]) it was 23.5 °C.

The values above are taken from paper PMC6006475 (2016).
